Experiment: Solid-state stability on storage in the well-plate under ambient temperature and relative humidity
Assay type: physicochemical
Details: for form change (desolvation / transformation) after storage: storage in the well-plate under ambient temperature and relative humidity for approximately 3 weeks
Text: The invention relates to the anhydrate crystalline Form VIII, hydrates and solvates both in pure form and in admixture with other anhydrate forms, hydrates or solvates of the compound of formula (I).

| form change (transformation) after storage (approximately 4 weeks of storage under ambient conditions) | SMILES | form change (desolvation / transformation) after storage |
| --- | --- | --- |
| partially transformed into Form VI | CC(C)Nc1nc2cc(Cl)c(Cl)cc2n1[C@H]1O[C@@H](CO)[C@H](O)[C@@H]1O [t-butylmethyl ether solvate 2, 5,6-dichloro-2-(isopropylamino)-1-(β-L-ribofuranosyl)-1H-benzimidazole] | – |
| – | CC(C)Nc1nc2cc(Cl)c(Cl)cc2n1[C@H]1O[C@@H](CO)[C@H](O)[C@@H]1O [acetonitrile solvate, 5,6-dichloro-2-(isopropylamino)-1-(β-L-ribofuranosyl)-1H-benzimidazole] | completely desolvated and transformed to the anhydrate Form V |
| – | CC(C)Nc1nc2cc(Cl)c(Cl)cc2n1[C@H]1O[C@@H](CO)[C@H](O)[C@@H]1O [n-propyl acetate solvate, 5,6-dichloro-2-(isopropylamino)-1-(β-L-ribofuranosyl)-1H-benzimidazole] | partially desolvated and transformed to the anhydrate Form VI |
